Results taken from patent US8466139B2, “Formulation” (AstraZeneca AB, priority 2000, dated 2013).

Tests used:
[1] = Solubility of fulvestrant in different solvents; type: physicochemical; settings: Water, 25° C.
[2] = tested on: human breast cancer cells; settings: block of oestradiol-stimulated growth, human breast cancer cells in vitro; cited from earlier work
[3] = tested on: uterus; settings: intact adult rats, cited from earlier work
[4] = Dissipation of 14C labelled benzyl alcohol from the injection site; type: in vivo
Excerpt: This finding is indeed surprising for the following reasons. • 1. […] It is believed that the tissue irritation/inflammation was due to the presence of fulvestrant in the form of solid particles. The release profile appeared to be determined by the extent of inflammation/irritation present at the injection site and this was variable and difficult to control.

SMILES | SOLUBILITY [1] | potency and effectiveness compared with tamoxifen [2] | effect on bone density ([3]; at dose giving maximum regression of the uterus) | regression of the uterus [3] | time to removal from the body after administration [4]
C[C@]12CC[C@@H]3c4ccc(O)cc4C[C@@H](CCCCCCCCC[S+]([O-])CCCC(F)(F)C(F)(F)F)[C@H]3[C@@H]1CC[C@@H]2O (stereo partly drawn) [fulvestrant, 7α-[9-(4,4,5,5,5-Pentafluoropentylsulphinyl)nonyl]oestra-1,3-5(10)-triene-3,17β-diol] | 0.001 mgml^−1 | more potent and more effective than tamoxifen | does not adversely affect | maximum regression | –
OCc1ccccc1 [^14C labelled benzyl alcohol, benzyl alcohol] | – | – | – | – | ≤ 24 h
